Values belong to the compound of their own block, whether it stands above or below them.
Key:
[1] = target: Mitogen-activated protein kinase kinase kinase 4 (Homo sapiens) (UniProt Q9Y6R4); assay: Selectivity interaction (KinomeScan (DiscoverX)) EUB0000607a MAP3K4; conditions: at 10 µM
[2] = target: T1, Serine/threonine-protein kinase DCLK2 (Homo sapiens) (UniProt Q8N568); assay: Selectivity interaction (KinomeScan (DiscoverX)) EUB0001619a DCLK2; conditions: at 1 µM
T1 sequence (whole entry): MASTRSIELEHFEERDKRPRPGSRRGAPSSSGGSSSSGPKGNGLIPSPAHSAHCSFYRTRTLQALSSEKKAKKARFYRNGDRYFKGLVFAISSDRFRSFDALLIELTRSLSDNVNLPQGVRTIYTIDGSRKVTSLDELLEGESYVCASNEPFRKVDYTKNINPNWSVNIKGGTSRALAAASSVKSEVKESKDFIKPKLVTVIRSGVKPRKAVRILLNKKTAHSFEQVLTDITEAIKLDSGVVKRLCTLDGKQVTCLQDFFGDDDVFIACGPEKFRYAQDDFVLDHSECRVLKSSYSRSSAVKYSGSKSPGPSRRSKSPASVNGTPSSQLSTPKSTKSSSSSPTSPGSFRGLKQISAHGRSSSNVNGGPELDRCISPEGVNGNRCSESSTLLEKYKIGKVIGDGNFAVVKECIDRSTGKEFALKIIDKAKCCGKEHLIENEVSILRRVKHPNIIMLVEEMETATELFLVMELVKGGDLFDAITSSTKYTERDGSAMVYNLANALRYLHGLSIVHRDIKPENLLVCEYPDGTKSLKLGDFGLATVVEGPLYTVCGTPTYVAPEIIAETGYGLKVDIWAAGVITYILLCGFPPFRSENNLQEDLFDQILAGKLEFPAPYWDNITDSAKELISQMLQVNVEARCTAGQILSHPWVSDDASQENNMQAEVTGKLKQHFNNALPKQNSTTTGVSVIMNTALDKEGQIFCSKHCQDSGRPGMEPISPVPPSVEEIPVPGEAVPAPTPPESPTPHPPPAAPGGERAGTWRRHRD

[3] = target: T2, Dual specificity protein kinase TTK (Homo sapiens) (UniProt P33981); assay: Selectivity interaction (KinomeScan (DiscoverX)) EUB0001619a TTK; conditions: at 1 µM
T2 sequence (whole entry): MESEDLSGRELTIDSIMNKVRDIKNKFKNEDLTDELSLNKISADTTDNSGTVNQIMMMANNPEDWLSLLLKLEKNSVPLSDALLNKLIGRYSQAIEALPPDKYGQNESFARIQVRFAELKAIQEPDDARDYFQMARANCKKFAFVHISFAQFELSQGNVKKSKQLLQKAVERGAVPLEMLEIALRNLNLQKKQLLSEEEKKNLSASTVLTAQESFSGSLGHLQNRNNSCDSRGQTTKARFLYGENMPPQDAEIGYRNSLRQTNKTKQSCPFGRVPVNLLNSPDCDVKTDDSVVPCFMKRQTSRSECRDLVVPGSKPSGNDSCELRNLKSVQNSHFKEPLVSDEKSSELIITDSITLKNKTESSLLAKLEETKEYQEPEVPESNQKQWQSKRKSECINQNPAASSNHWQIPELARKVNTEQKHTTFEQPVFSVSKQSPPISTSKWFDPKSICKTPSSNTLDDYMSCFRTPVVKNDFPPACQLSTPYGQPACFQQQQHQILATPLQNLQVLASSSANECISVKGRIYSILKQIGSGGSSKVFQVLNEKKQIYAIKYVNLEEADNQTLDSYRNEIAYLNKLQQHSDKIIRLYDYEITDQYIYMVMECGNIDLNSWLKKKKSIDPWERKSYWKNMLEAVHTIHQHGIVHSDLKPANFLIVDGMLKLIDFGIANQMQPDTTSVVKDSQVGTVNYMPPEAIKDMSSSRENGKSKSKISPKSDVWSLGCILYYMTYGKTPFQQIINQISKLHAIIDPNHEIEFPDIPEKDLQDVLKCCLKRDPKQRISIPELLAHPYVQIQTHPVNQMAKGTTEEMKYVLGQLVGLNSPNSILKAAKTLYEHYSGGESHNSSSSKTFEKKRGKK

[4] = target: Serine/threonine-protein kinase 35 (Homo sapiens) (UniProt Q8TDR2); assay: Selectivity interaction (KinomeScan (DiscoverX)) EUB0000045b STK35
[5] = target: T3, Serine/threonine-protein kinase ULK3 (Homo sapiens) (UniProt Q6PHR2); assay: Selectivity interaction (ActivX KiNativ screen (kinase selectivity in THP-1 cell lysates)) EUB0000639a ULK3; assay type: subcellular; conditions: lysate, at 1 µM
T3 sequence (whole entry): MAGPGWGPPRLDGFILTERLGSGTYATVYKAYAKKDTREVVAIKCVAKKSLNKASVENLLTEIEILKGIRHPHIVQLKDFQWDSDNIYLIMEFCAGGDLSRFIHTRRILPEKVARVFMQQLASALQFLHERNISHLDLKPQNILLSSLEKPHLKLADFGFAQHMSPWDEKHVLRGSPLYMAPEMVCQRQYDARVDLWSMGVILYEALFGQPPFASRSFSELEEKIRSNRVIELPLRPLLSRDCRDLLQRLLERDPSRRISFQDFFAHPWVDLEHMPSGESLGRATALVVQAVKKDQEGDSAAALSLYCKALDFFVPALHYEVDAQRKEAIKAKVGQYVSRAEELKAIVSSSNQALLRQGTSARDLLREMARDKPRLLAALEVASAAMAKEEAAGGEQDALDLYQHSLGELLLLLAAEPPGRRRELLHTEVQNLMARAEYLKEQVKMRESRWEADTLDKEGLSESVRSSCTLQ

[6] = target: T4, Sphingosine kinase 2 (Homo sapiens) (UniProt Q9NRA0); assay: Selectivity interaction (Kinase panel (Invitrogen)) EUB0000639a SPHK2; conditions: at 200 nM
T4 sequence (whole entry): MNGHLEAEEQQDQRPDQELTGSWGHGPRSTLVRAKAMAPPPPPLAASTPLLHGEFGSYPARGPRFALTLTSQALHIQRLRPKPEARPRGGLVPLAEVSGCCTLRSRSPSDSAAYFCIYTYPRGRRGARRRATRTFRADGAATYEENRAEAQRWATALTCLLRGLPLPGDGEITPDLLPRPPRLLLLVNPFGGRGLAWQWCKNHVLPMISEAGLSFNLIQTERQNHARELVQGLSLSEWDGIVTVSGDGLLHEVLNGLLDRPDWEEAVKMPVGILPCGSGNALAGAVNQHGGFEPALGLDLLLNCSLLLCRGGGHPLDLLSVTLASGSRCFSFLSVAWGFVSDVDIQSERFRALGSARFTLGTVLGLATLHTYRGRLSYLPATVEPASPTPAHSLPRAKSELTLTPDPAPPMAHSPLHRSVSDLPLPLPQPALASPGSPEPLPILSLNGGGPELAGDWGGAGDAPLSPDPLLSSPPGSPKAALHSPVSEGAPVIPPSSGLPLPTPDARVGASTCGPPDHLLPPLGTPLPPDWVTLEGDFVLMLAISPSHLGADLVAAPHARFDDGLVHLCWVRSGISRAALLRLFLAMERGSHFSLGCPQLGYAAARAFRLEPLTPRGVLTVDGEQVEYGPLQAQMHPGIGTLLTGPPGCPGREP

Serine/threonine-protein kinase 35 (Homo sapiens), sequence (Q8TDR2 whole entry): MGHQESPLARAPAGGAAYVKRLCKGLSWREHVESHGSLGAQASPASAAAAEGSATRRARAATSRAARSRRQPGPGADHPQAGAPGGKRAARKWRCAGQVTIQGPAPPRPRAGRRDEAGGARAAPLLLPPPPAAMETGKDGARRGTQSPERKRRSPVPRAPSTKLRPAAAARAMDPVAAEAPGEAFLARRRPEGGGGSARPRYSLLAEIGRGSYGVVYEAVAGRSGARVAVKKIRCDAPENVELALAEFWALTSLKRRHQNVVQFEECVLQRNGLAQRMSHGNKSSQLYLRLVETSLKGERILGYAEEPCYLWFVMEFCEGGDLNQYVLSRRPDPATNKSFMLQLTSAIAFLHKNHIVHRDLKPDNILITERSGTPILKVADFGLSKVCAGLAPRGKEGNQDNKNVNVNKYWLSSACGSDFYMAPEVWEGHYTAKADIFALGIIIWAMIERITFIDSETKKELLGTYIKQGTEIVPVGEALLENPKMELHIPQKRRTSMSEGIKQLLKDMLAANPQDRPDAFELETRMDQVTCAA
Mitogen-activated protein kinase kinase kinase 4 (Homo sapiens), sequence (Q9Y6R4 whole entry): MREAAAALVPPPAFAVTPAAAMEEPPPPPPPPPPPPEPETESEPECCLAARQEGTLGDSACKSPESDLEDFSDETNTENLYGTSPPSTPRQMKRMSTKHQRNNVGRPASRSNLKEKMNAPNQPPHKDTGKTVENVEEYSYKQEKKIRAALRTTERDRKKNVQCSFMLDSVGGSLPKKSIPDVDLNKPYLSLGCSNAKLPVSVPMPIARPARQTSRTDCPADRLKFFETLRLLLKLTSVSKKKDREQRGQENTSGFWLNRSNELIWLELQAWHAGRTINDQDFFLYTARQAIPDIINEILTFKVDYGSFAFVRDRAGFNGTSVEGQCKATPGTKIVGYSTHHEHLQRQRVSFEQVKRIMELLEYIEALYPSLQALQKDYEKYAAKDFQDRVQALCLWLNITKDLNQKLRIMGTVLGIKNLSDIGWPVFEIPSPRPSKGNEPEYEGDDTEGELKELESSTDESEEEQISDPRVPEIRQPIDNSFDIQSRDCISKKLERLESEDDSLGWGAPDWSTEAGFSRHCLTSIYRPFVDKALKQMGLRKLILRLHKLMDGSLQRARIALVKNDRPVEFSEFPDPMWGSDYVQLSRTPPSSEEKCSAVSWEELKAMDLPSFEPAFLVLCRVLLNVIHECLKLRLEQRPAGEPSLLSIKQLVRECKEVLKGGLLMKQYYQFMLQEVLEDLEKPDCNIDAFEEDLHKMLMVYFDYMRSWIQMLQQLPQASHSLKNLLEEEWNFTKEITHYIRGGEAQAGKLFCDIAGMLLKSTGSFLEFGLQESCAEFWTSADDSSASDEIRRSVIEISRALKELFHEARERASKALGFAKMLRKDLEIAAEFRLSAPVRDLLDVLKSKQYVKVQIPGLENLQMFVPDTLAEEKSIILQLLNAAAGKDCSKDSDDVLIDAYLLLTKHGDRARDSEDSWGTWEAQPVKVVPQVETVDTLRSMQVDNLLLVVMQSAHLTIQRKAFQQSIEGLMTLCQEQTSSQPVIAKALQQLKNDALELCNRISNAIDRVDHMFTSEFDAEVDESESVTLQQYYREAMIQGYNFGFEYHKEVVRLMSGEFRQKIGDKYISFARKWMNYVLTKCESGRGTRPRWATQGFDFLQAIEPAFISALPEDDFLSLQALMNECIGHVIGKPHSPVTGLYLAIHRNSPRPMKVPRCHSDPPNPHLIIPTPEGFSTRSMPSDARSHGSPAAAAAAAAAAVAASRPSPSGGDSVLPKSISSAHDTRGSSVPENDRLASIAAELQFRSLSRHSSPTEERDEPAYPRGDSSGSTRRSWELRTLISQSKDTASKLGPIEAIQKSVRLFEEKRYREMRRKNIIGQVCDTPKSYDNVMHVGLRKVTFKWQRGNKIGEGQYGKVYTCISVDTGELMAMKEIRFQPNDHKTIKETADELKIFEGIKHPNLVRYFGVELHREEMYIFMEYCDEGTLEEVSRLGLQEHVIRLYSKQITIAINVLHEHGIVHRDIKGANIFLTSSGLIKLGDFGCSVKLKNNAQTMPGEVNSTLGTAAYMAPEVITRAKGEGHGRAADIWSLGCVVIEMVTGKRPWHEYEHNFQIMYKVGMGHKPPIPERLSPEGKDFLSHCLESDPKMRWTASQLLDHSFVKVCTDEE

SMILES: CNC(=O)Nc1ccc(-c2nc(N3CC4CCC(C3)O4)c3cnn(C4CCC5(CC4)OCCO5)c3n2)cc1
% of control [1]: 86%

SMILES: N#Cc1cccc(-c2c[nH]c3ncnc(N4CCOCC4)c23)c1
% of control [2]: 100% | % of control [3]: 92%

SMILES: C=CC(=O)Nc1cc(-n2c(=O)ccc3cnc4ccc(-c5ccc(NS(C)(=O)=O)cc5)cc4c32)ccc1C
% of control ([4]; at 1 µM): 100% | % of control ([4]; at 10 µM): 100%

% of inhibition [5]: -4.6% | % of inhibition [6]: -0.837%
SMILES: CC[C@@H]1[C@H](F)C(=O)N[C@@H]1COc1nccc2cc(C(N)=O)c(OC)cc12 [ZIMLOVISERTIB]

Source: ChEMBL document CHEMBL5465560, “Selectivity Literature for EUbOPEN Chemogenomic Library” (2024)
